Reference: ChEMBL document CHEMBL1201862, “PubChem BioAssay data set” (2004)
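Following 48 hours of exposure in 96-well plates, responses at five concentrations were used to interpolate endpoints linearly. Here, GI50 denotes the concentration required for 50% inhibition of growth.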 The source made the active and inactive calls. No stated cut-off is given here; in the data, active = GI50 up to about 1.1 µM and inactive = higher.

Columns and labels:
Experiment in all cases: inhibition of tumour cell growth, NCI panel, 48 h
SF-295 = test system: SF-295
SNB-75 = test system: SNB-75
NCI-H23 = test system: NCI-H23
EKVX = test system: EKVX
NCI-H460 = test system: NCI-H460
MDA-MB-435 = test system: MDA-MB-435
Malme-3M = test system: Malme-3M
OVCAR-3 = test system: OVCAR-3
OVCAR-4 = test system: OVCAR-4
M14 = test system: M14
HL-60 = test system: HL-60
SK-MEL-2 = test system: SK-MEL-2
HOP-92 = test system: HOP-92
CCRF-CEM = test system: CCRF-CEM
HT-29 = test system: HT-29
SF-539 = test system: SF-539
DU-145 = test system: DU-145
RXF 393 = test system: RXF 393
CAKI-1 = test system: CAKI-1
LOX IMVI = test system: LOX IMVI

Measured: GI50

CC(=O)Nc1ccc(C(=O)NN2C(=O)C(Cl)C2c2ccc(Cl)cc2)cc1 (stereo unspecified)
inactive: SF-295 20.6 µM | SNB-75 16.1 µM | NCI-H23 44.8 µM | EKVX > 100 µM | NCI-H460 > 90.4 µM | MDA-MB-435 > 100 µM | Malme-3M > 42.9 µM | OVCAR-3 18.8 µM | OVCAR-4 > 100 µM | M14 > 100 µM | HL-60 > 100 µM | SK-MEL-2 41.6 µM | HOP-92 26.1 µM | CCRF-CEM > 100 µM | HT-29 > 100 µM | SF-539 21.6 µM | DU-145 > 100 µM

Cc1cc(C)c(N[S+]([O-])c2cccc(Cl)c2)c(C)c1 (stereo unspecified)
inactive: SF-295 > 100 µM | NCI-H23 > 100 µM | EKVX > 100 µM | NCI-H460 > 100 µM | RXF 393 > 100 µM | MDA-MB-435 > 100 µM | Malme-3M > 100 µM | OVCAR-3 > 100 µM | M14 > 100 µM | HL-60 > 100 µM | HOP-92 > 100 µM | CCRF-CEM > 100 µM | HT-29 > 100 µM | SF-539 > 100 µM | DU-145 > 100 µM

O=C(C(Cl)=C(N1CCCCC1)N1CCCCC1)C(Cl)Cl
inactive: SF-295 > 100 µM | NCI-H23 > 100 µM | EKVX > 100 µM | NCI-H460 > 100 µM | RXF 393 > 100 µM | MDA-MB-435 > 100 µM | Malme-3M > 100 µM | OVCAR-3 > 100 µM | OVCAR-4 > 100 µM | M14 > 100 µM | HL-60 > 100 µM | CAKI-1 21.4 µM | LOX IMVI > 100 µM | HOP-92 > 100 µM | CCRF-CEM > 100 µM | HT-29 > 100 µM | SF-539 > 100 µM | DU-145 > 100 µM

Cc1ccc(C2(c3ccc(F)cc3)OC(=O)c3ccccc32)c(O)c1 (stereo unspecified)
inactive: SF-295 11.5 µM | SNB-75 12.3 µM | NCI-H23 19.9 µM | EKVX 16 µM | NCI-H460 17 µM | MDA-MB-435 12.4 µM | Malme-3M > 10 µM | OVCAR-3 3.56 µM | OVCAR-4 17 µM | M14 15 µM | HL-60 14 µM | CAKI-1 11.6 µM | SK-MEL-2 14.7 µM | LOX IMVI 13.9 µM | HOP-92 16.6 µM | CCRF-CEM 18.7 µM | HT-29 17.7 µM | SF-539 18.9 µM | DU-145 15.4 µM

CC(=O)c1c(O)c(C)c(O)c(Cc2c(O)c3c(c(C(=O)/C=C/c4ccccc4)c2O)OC(C)(C)C=C3)c1O [ROTTLERIN]
inactive: SF-295 2.85 µM | SNB-75 1.27 µM | NCI-H23 2.37 µM | EKVX 2.68 µM | NCI-H460 2.94 µM | MDA-MB-435 2.74 µM | Malme-3M 2.84 µM | OVCAR-3 2.7 µM | OVCAR-4 2.79 µM | M14 3.23 µM | HL-60 2.64 µM | CAKI-1 2.91 µM | SK-MEL-2 1.34 µM | LOX IMVI 2.86 µM | HOP-92 1.62 µM | CCRF-CEM 2.99 µM | HT-29 3.24 µM | SF-539 2.99 µM | DU-145 3.49 µM

CC1(O)Oc2ccc3ccccc3c2C=C1C(N)=O (stereo unspecified)
inactive: SF-295 > 100 µM | SNB-75 52 µM | NCI-H23 > 100 µM | EKVX 54 µM | NCI-H460 61.1 µM | RXF 393 49.2 µM | MDA-MB-435 > 100 µM | OVCAR-4 72.9 µM | M14 66.4 µM | HL-60 > 100 µM | CAKI-1 80.5 µM | SK-MEL-2 40.4 µM | LOX IMVI > 100 µM | HOP-92 77.1 µM | CCRF-CEM 86.5 µM | SF-539 42.1 µM | DU-145 > 100 µM

CC(C)NCC(O)c1ccc(O)c2ncccc12 (stereo unspecified)
inactive: SF-295 30.9 µM | SNB-75 > 100 µM | NCI-H23 11 µM | EKVX 49.3 µM | NCI-H460 5.58 µM | RXF 393 91 µM | MDA-MB-435 > 100 µM | OVCAR-3 16 µM | OVCAR-4 68.5 µM | M14 42.4 µM | HL-60 24.6 µM | CAKI-1 64.9 µM | SK-MEL-2 52.8 µM | LOX IMVI 30.3 µM | HOP-92 > 100 µM | HT-29 36.4 µM | SF-539 43 µM | DU-145 37.2 µM

O=S(=O)(c1ccccc1)N1CN2CN(C1)CN(S(=O)(=O)c1ccccc1)C2
inactive: SF-295 > 100 µM | SNB-75 22.7 µM | NCI-H23 > 100 µM | EKVX > 100 µM | NCI-H460 > 100 µM | RXF 393 55.7 µM | MDA-MB-435 > 100 µM | OVCAR-3 > 100 µM | OVCAR-4 > 100 µM | M14 > 100 µM | HL-60 26.6 µM | CAKI-1 > 100 µM | SK-MEL-2 > 100 µM | LOX IMVI > 100 µM | HOP-92 > 100 µM | HT-29 > 100 µM | SF-539 > 100 µM | DU-145 > 100 µM

COc1ccc2nc3cc([N+](=O)[O-])ccc3c(NNc3ccccc3)c2c1
inactive: SF-295 35.5 µM | SNB-75 49.1 µM | NCI-H23 34.7 µM | EKVX 16 µM | NCI-H460 11.7 µM | RXF 393 47.9 µM | MDA-MB-435 29.6 µM | Malme-3M 20.3 µM | OVCAR-3 30 µM | OVCAR-4 60.7 µM | M14 27.5 µM | HL-60 18.7 µM | SK-MEL-2 27.4 µM | LOX IMVI 29 µM | HOP-92 19.8 µM | CCRF-CEM 23.2 µM | HT-29 13.8 µM | SF-539 26.8 µM | DU-145 42.1 µM

O=C(/C=C/c1c(O)nc2ccccc2c1O)CC(=O)C(=O)Nc1cccc(O)c1
inactive: SF-295 > 100 µM | SNB-75 > 100 µM | NCI-H23 > 100 µM | EKVX > 100 µM | NCI-H460 > 100 µM | MDA-MB-435 > 100 µM | Malme-3M > 100 µM | OVCAR-3 > 100 µM | OVCAR-4 > 100 µM | M14 > 100 µM | HL-60 > 100 µM | CAKI-1 > 100 µM | SK-MEL-2 > 100 µM | LOX IMVI > 100 µM | HOP-92 > 100 µM | CCRF-CEM 21.1 µM | HT-29 > 100 µM | SF-539 > 100 µM | DU-145 > 100 µM

CC1=CC(=O)/C(=C/NC(=S)NCCc2ccccc2)C(=O)O1
inactive: SF-295 > 100 µM | SNB-75 75 µM | NCI-H23 > 100 µM | EKVX > 100 µM | NCI-H460 > 100 µM | MDA-MB-435 > 100 µM | OVCAR-3 > 100 µM | OVCAR-4 > 100 µM | M14 > 100 µM | HL-60 > 100 µM | CAKI-1 > 100 µM | SK-MEL-2 > 100 µM | LOX IMVI 30.1 µM | HOP-92 > 100 µM | HT-29 > 100 µM | SF-539 > 100 µM | DU-145 > 100 µM
